# Data from PMC6272301, “Inhibition of Oxidative Stress and Skin Aging-Related Enzymes by Prenylated Chalcones and Other Flavonoids from Helichrysum teretifolium” (Molecules, 2015).
# Several values for one entry are separate records, joined by “and”; a condition that tells them apart may be missing. Equal values may be shown once.
# System: not listed separately
# Assay: Automated ORAC assay, peroxyl radical (AAPH; ORAC ROO.)
# Details: peroxyl radical from AAPH, 37 °C; Trolox equivalents
# Protocol: (§1) 3.4.2. Automated Oxygen Radicals Absorbance Capacity (ORAC) Assay
# (§2) ORAC was measured according to the method described by Prior [30], with some modifications. […] The copper-initiated prooxidant activity was calculated using [(AreaBlank − AreaSample)/AreaBlank] × 100 and expressed as prooxidant units; one unit equals the prooxidant activity that reduces the area under the fluorescein decay curve by 1% in the ORAC assay.
row,SMILES,Automated Oxygen Radical Absorbance Capacity (ORAC μM TE/g) ROO. [μM/g × 10^3]
1,"CC(C)=CCOc1cc(O)c(C(=O)/C=C/c2ccccc2)c2c1C=CC(C)(C)O2 [Compound 1, 2'-hydroxy-5',6'-(2,2-dimethylpyrano)-4'-(O-prenyl)-chalcone]",2.833 ± 3.88
2,"CC(C)=CCc1c(O)cc(O)c(C(=O)/C=C/c2ccccc2)c1O [Compound 3, 2',4',6'-trihydroxy-3'-prenylchalcone]",5.025 ± 6.16
3,"CC(C)=CCc1c(O)cc2c(c1O)C(=O)C[C@@H](c1ccccc1)O2 [Compound 4, isoglabranin]",1.063 ± 33.50
4,"CC(C)=CCc1c(O)cc(O)c2c1O[C@H](c1ccccc1)CC2=O [Compound 5, glabranin]",0.856 ± 17.35
5,"O=c1c(O)c(-c2ccc(O)c(O)c2)oc2cc(O)cc(O)c12 [Compound 7, quercetin]",17.836 ± 2.90

# System: not listed separately
# Assay: Automated ORAC assay, hydroxyl radical (H2O2-Cu2+; ORAC OH.)
# Details: hydroxyl radical from H2O2 0.3% - Cu2+ 18 µM, 37 °C; Trolox equivalents
# Protocol: as §1, §2
row,SMILES,Automated Oxygen Radical Absorbance Capacity (ORAC μM TE/g) OH. [μM/g × 10^6]
1,"CC(C)=CCOc1cc(O)c(C(=O)/C=C/c2ccccc2)c2c1C=CC(C)(C)O2 [Compound 1, 2'-hydroxy-5',6'-(2,2-dimethylpyrano)-4'-(O-prenyl)-chalcone]",2.998 ± 1.67
2,"CC(C)=CCc1c(O)cc(O)c(C(=O)/C=C/c2ccccc2)c1O [Compound 3, 2',4',6'-trihydroxy-3'-prenylchalcone]",3.771 ± 3.02
3,"CC(C)=CCc1c(O)cc2c(c1O)C(=O)C[C@@H](c1ccccc1)O2 [Compound 4, isoglabranin]",2.918 ± 4.13
4,"CC(C)=CCc1c(O)cc(O)c2c1O[C@H](c1ccccc1)CC2=O [Compound 5, glabranin]",2.997 ± 0.36
5,"O=c1c(O)c(-c2ccc(O)c(O)c2)oc2cc(O)cc(O)c12 [Compound 7, quercetin]",7.265 ± 0.71

# System: not listed separately
# Assay: Copper-initiated prooxidant activity in the ORAC assay (Cu2+ without H2O2)
# Details: Cu2+ (CuSO4) 18 µM without H2O2, 37 °C; prooxidant (arbitrary) units
# Protocol: as §1, §2
row,SMILES,Automated Oxygen Radical Absorbance Capacity (ORAC μM TE/g) Prooxidant [µM/g]
1,"CC(C)=CCOc1cc(O)c(C(=O)/C=C/c2ccccc2)c2c1C=CC(C)(C)O2 [Compound 1, 2'-hydroxy-5',6'-(2,2-dimethylpyrano)-4'-(O-prenyl)-chalcone]",2.036 ± 2.98
2,"CC(C)=CCc1c(O)cc(O)c(C(=O)/C=C/c2ccccc2)c1O [Compound 3, 2',4',6'-trihydroxy-3'-prenylchalcone]",4.704 ± 0.27
3,"CC(C)=CCc1c(O)cc2c(c1O)C(=O)C[C@@H](c1ccccc1)O2 [Compound 4, isoglabranin]",3.947 ± 0.29
4,"CC(C)=CCc1c(O)cc(O)c2c1O[C@H](c1ccccc1)CC2=O [Compound 5, glabranin]",2.971 ± 1.10
5,"O=c1c(O)c(-c2ccc(O)c(O)c2)oc2cc(O)cc(O)c12 [Compound 7, quercetin]",4.361 ± 0.78

# System: not listed separately
# Assay: Ferric-ion reducing antioxidant power assay (FRAP)
# Details: ascorbic acid equivalents; absorbance 593 nm
# Protocol: 3.4.1. Ferric-Ion Reducing Antioxidant Power Assay (FRAP)
# Working FRAP reagent was prepared in accordance to the methods described previously. […] L-Ascorbic acid was used as a standard and the results were expressed as μM ascorbic acid equivalents per […] dry weight (μM AAE/g DW) of the test samples.
row,SMILES,FRAP
1,"CC(C)=CCc1c(O)cc(O)c(C(=O)/C=C/c2ccccc2)c1O [Compound 3, 2',4',6'-trihydroxy-3'-prenylchalcone]",817.94 ± 4.26 μM AAE/g
2,"CC(C)=CCc1c(O)cc2c(c1O)C(=O)C[C@@H](c1ccccc1)O2 [Compound 4, isoglabranin]",7.052 ± 3.76 μM AAE/g
3,"CC(C)=CCc1c(O)cc(O)c2c1O[C@H](c1ccccc1)CC2=O [Compound 5, glabranin]",67.79 ± 14.27 μM AAE/g
4,"O=c1c(O)c(-c2ccc(O)c(O)c2)oc2cc(O)cc(O)c12 [Compound 7, quercetin]",4816 ± 7.42 μM AAE/g and 4816.31 ± 7.42 μM AAE/g

# System: not listed separately
# Assay: Trolox equivalent absorbance capacity (TEAC) assay
# Details: Trolox equivalents; absorbance 734 nm, 25 °C
# Protocol: 3.4.3. Trolox Equivalent Absorbance Capacity (TEAC) Assay
# The total antioxidant activity of test samples were measured using previously described methods.
row,SMILES,TEAC [μM TE/g]
1,"CC(C)=CCc1c(O)cc(O)c(C(=O)/C=C/c2ccccc2)c1O [Compound 3, 2',4',6'-trihydroxy-3'-prenylchalcone]",4529.01 ± 2.44
2,"CC(C)=CCc1c(O)cc2c(c1O)C(=O)C[C@@H](c1ccccc1)O2 [Compound 4, isoglabranin]",43.17 ± 6.26
3,"CC(C)=CCc1c(O)cc(O)c2c1O[C@H](c1ccccc1)CC2=O [Compound 5, glabranin]",204.15 ± 2.04
4,"O=c1c(O)c(-c2ccc(O)c(O)c2)oc2cc(O)cc(O)c12 [Compound 7, quercetin]",1361.70 ± 1.98

# System: Fe (II)-induced microsomal lipid peroxidation (rat liver microsomes)
# Assay: Inhibition of Fe (II)-induced microsomal lipid peroxidation
# Type: biochemical
# Details: TBARS, purified compounds screened at 26.750 μg/mL, extract (HT) at 100 μg/mL
# From the text: 3.4.4. Inhibition of Fe (II)-Induced Microsomal Lipid Peroxidation Assay
# A modified assay described by Snijman et al. with little modifications.
row,SMILES,Inhibitory Activitis (IC50) Lipid Peroxidation [µg/mL]
1,"CC(C)=CCOc1cc(O)c(C(=O)/C=C/c2ccccc2)c2c1C=CC(C)(C)O2 [Compound 1, 2'-hydroxy-5',6'-(2,2-dimethylpyrano)-4'-(O-prenyl)-chalcone]",>26.750
2,"CC(C)=CCc1c(O)cc(O)c(C(=O)/C=C/c2ccccc2)c1O [Compound 3, 2',4',6'-trihydroxy-3'-prenylchalcone]",21.276
3,"CC(C)=CCc1c(O)cc2c(c1O)C(=O)C[C@@H](c1ccccc1)O2 [Compound 4, isoglabranin]",>26.750
4,"CC(C)=CCc1c(O)cc(O)c2c1O[C@H](c1ccccc1)CC2=O [Compound 5, glabranin]",>26.750
5,"O=c1c(O)c(-c2ccc(O)c(O)c2)oc2cc(O)cc(O)c12 [Compound 7, quercetin]",2.931

# Biological target: T1, elastase (from porcine pancreas) (Sus scrofa, UniProt P00772)
# T1 construct: purchased Sigma-Aldrich, Inc. (St. Louis, MO, USA); host or cells: porcine pancreas
# T1 sequence (P00772 27-266): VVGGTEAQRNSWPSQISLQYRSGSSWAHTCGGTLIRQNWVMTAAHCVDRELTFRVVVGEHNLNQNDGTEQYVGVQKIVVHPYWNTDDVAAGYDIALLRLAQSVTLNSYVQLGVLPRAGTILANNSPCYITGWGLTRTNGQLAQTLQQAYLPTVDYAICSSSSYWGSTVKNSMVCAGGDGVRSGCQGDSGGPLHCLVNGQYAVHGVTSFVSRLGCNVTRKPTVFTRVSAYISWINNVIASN
# Assay: Elastase inhibition assay
# Type: biochemical
# Details: substrate SANA; 100 μg/mL optimum concentration; read-out: Inhibitory Activitis (IC50) Elastase (converted)
# Protocol: Organic solvents, methanol, acetonitrile (HPLC grade), ethanol, ethyl acetate, dichloromethane and hexane were supplied by Merck (Cape Town, South Africa). TLC was conducted on normal-phase (Merck) Silica gel 60 PF254 pre-coated aluminum plates. Column chromatography was performed using silica gel 60 H (0.040–0.063 mm particle size, Merck) and Sephadex LH-20 (Sigma-Aldrich, Cape Town, South Africa). NMR spectra were recorded on an Avance 400 MHz NMR spectrometer (Bruker, Rheinstetten, Germany) in deuterated chloroform and acetone, using the solvent signals as internal reference. HRMS analysis was conducted on an Ultimate 3000 LC (Dionex Sunnyvale, CA, USA) coupled to a Bruker QTOF with electrospray ionization (ESI) interface working in the positive ion mode.
# 3.4.6. Elastase Inhibition Assay
# Inhibition of elastase by the test samples was assayed using N-succyl-(Ala)3-nitroanilide (SANA) as the substrate, monitoring the release of p-nitroanilide by the method described by Chompo et al. with little adjustment. The inhibitory activity determined the intensity of colour released during cleavage of SANA by the action of elastase. Briefly, 1 mM SANA was prepared in 0.1 M Tris-HCl buffer pH 8.0 and 200 µL of this solution was added to the 20 µL of sample solution in a 96-Well plate. The mixtures were vortexed and preincubated for 10 min at 25 °C and then 20 µL of elastase from porcine pancrease (0.03 units/mL) was added. The mixtures were further incubated for 10 min and the absorbance was measured at 410 nm. Methanol was used as control, while oleanolic acid used as a positive control.
row,SMILES,IC50 [µM]
1,"CC(C)=CCOc1cc(O)c(C(=O)/C=C/c2ccccc2)c2c1C=CC(C)(C)O2 [Compound 1, 2'-hydroxy-5',6'-(2,2-dimethylpyrano)-4'-(O-prenyl)-chalcone]",> 256
2,"CC(C)=CCc1c(O)cc(O)c(C(=O)/C=C/c2ccccc2)c1O [Compound 3, 2',4',6'-trihydroxy-3'-prenylchalcone]",> 308
3,"CC(C)=CCc1c(O)cc2c(c1O)C(=O)C[C@@H](c1ccccc1)O2 [Compound 4, isoglabranin]",> 308
4,"CC(C)=CCc1c(O)cc(O)c2c1O[C@H](c1ccccc1)CC2=O [Compound 5, glabranin]",> 308
